Values belong to the compound of their own block, whether it stands above or below them.
Tests used:
[1] = target: Dual specificity protein kinase CLK2 (Homo sapiens, UniProt P49760)
[2] = target: Dual specificity protein kinase CLK1 (Homo sapiens, UniProt P49759)
[3] = target: Dual specificity protein kinase CLK4 (Homo sapiens, UniProt Q9HAZ1)
[4] = target: T1, Bromodomain-containing protein 1 (Homo sapiens, UniProt O95696)
T1 sequence (O95696 whole entry): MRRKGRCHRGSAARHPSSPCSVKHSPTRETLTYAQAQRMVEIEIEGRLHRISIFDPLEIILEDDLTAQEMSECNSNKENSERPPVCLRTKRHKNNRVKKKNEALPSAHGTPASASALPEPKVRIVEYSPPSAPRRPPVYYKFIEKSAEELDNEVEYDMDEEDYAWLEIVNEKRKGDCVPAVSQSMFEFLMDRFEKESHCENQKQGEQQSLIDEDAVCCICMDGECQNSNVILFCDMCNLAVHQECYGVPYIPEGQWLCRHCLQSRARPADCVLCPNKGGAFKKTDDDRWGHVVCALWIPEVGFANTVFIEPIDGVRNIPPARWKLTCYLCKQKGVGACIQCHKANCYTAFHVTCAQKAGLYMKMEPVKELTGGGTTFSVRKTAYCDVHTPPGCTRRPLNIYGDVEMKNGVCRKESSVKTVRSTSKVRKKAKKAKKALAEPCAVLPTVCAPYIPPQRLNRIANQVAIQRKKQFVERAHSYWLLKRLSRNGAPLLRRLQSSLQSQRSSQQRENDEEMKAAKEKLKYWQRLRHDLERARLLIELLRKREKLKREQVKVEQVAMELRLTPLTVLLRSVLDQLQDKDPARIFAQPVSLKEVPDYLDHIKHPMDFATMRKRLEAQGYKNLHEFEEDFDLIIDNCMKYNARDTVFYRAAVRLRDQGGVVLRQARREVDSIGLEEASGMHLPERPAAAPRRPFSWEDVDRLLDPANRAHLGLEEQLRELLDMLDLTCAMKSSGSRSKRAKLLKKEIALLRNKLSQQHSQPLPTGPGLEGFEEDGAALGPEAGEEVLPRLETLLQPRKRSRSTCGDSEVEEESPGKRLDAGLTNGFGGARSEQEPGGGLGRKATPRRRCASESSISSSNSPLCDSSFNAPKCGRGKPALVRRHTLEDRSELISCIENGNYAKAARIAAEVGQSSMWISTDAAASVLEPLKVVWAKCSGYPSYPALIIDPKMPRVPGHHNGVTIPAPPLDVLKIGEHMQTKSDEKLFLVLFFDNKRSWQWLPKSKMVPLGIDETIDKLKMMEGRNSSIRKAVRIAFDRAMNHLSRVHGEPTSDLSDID

[5] = target: T2, Bromodomain and PHD finger-containing protein 3 (Homo sapiens, UniProt Q9ULD4)
T2 sequence (Q9ULD4 whole entry): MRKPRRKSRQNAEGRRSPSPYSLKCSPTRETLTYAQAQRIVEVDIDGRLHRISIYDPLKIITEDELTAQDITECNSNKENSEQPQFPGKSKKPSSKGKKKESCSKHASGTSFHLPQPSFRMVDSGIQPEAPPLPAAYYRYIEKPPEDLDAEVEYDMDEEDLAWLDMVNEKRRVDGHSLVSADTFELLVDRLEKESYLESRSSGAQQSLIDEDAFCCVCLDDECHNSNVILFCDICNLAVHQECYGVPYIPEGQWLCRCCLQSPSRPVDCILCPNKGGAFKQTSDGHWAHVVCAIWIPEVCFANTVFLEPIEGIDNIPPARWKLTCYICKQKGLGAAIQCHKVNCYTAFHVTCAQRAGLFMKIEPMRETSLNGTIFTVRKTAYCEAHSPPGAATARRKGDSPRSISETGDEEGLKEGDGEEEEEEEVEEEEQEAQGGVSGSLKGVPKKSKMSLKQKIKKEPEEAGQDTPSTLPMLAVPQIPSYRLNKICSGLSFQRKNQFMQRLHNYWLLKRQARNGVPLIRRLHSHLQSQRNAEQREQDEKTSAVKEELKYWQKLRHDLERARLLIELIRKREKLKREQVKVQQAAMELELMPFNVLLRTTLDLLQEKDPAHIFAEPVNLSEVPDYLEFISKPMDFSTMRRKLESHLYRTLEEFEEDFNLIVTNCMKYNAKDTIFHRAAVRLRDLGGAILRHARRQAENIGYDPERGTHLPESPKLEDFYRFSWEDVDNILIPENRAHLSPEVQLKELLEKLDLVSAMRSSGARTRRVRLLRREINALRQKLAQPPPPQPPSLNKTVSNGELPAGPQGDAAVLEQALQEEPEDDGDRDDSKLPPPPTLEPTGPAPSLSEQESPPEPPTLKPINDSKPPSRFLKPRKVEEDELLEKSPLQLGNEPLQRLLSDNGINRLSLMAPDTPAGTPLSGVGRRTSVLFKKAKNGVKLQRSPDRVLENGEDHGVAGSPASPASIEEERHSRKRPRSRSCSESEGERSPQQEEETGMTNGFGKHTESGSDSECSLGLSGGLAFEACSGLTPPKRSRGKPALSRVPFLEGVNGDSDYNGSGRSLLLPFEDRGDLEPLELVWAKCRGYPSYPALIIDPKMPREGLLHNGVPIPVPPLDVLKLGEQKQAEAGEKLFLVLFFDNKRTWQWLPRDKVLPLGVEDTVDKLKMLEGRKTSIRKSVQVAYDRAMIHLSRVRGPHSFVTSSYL

Peregrin = target: T3, Peregrin (Homo sapiens, UniProt P55201)
T3 sequence (P55201 whole entry): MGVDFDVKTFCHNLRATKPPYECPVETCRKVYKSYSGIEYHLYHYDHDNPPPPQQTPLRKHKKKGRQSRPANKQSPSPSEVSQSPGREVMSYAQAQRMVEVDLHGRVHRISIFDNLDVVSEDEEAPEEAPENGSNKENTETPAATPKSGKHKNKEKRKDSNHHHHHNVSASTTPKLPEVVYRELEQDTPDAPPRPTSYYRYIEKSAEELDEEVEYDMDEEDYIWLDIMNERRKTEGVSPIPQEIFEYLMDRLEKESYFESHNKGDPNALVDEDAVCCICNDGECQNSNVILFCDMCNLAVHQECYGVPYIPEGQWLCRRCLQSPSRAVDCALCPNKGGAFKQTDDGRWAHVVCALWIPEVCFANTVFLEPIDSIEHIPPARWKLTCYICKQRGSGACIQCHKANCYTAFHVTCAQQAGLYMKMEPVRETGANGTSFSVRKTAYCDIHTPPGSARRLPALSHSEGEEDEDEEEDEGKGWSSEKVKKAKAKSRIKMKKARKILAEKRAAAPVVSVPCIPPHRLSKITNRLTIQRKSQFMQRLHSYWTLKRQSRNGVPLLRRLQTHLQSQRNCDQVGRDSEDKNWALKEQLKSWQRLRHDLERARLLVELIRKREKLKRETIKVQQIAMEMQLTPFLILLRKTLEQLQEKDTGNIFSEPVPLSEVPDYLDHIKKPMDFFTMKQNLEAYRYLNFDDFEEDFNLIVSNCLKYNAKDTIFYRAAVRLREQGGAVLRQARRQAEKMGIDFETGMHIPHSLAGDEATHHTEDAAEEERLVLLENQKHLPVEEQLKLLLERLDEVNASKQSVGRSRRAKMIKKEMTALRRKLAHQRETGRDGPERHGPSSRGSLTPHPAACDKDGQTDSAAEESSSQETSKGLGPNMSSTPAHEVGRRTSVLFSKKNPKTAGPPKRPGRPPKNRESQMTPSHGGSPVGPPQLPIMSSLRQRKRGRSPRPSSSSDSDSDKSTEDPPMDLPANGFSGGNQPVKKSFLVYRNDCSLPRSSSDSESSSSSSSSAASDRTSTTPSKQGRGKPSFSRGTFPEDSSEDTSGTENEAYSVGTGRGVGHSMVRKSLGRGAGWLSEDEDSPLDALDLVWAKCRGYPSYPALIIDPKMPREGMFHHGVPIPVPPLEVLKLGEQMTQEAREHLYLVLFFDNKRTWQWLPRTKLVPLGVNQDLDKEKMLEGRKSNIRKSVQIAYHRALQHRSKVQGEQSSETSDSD

SRSF protein kinase 2 = SRSF protein kinase 2 (Homo sapiens, UniProt P78362)
SRSF protein kinase 1 = SRSF protein kinase 1 (Homo sapiens, UniProt Q96SB4)
[6] = target: Protein-arginine deiminase type-4 (Homo sapiens, UniProt Q9UM07)
[7] = target: T4, Histone-lysine N-methyltransferase NSD3 (Homo sapiens, UniProt Q9BZ95)
T4 sequence (Q9BZ95 whole entry): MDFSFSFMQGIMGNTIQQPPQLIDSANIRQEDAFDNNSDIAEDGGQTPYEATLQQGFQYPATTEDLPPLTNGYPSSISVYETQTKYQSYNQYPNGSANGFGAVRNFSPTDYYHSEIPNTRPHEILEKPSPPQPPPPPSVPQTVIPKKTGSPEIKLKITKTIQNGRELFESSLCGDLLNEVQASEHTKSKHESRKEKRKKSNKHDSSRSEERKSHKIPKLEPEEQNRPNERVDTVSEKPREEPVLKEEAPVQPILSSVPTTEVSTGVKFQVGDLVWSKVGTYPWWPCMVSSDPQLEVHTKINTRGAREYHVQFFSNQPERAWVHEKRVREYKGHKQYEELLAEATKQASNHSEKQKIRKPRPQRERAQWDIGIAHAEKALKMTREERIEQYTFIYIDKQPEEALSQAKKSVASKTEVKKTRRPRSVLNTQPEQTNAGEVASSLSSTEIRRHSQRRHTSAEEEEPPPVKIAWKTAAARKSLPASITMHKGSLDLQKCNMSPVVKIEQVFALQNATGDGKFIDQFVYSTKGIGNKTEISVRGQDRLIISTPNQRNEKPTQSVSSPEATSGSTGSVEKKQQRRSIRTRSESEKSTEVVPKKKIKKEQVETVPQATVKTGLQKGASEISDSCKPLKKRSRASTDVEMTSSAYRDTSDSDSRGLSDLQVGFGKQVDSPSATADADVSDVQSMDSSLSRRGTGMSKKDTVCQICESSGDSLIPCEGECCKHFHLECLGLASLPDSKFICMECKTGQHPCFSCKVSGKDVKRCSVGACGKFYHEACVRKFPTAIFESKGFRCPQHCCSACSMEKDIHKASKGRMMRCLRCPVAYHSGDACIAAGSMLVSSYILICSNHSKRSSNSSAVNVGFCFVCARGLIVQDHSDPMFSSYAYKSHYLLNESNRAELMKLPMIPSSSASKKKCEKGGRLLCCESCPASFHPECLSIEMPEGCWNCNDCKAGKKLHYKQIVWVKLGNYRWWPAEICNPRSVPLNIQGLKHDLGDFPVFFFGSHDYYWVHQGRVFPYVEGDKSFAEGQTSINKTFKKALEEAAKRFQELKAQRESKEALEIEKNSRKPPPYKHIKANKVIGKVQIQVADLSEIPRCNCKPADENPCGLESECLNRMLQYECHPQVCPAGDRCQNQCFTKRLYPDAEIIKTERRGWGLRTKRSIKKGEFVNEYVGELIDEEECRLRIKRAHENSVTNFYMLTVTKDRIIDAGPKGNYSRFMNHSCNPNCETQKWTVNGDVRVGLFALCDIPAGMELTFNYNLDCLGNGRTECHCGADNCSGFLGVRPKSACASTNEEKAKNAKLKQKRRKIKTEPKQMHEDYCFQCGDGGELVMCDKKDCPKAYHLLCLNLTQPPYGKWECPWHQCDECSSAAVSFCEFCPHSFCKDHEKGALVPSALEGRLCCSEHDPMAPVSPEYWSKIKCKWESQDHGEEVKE

[8] = target: Chromatin remodeling regulator CECR2 (Homo sapiens, UniProt Q9BXF3)
[9] = target: Nucleosome-remodeling factor subunit BPTF (Homo sapiens, UniProt Q12830)
[10] = target: T5, Bromodomain-containing protein 9 (Homo sapiens, UniProt Q9H8M2)
T5 sequence (Q9H8M2 whole entry): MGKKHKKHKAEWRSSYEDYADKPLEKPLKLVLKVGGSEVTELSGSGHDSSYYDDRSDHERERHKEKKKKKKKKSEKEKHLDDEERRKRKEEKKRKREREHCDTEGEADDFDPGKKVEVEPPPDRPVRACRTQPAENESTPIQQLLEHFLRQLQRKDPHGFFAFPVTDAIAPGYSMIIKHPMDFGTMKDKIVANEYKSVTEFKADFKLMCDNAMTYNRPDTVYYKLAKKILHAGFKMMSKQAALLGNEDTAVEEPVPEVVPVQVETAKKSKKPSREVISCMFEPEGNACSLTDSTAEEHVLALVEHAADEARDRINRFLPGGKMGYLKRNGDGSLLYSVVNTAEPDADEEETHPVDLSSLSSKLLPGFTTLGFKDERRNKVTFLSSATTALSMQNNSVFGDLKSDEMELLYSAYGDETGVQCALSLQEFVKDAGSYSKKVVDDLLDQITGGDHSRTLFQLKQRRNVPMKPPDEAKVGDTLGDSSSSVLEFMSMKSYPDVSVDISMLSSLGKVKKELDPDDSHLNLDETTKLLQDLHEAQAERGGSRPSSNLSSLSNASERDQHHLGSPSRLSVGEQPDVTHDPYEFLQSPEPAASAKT

CDK8/Cyclin C = CDK8/Cyclin C (Homo sapiens, UniProt P49336); type: protein-complex assay

Chain of SRSF protein kinase 2 (P78362 whole entry): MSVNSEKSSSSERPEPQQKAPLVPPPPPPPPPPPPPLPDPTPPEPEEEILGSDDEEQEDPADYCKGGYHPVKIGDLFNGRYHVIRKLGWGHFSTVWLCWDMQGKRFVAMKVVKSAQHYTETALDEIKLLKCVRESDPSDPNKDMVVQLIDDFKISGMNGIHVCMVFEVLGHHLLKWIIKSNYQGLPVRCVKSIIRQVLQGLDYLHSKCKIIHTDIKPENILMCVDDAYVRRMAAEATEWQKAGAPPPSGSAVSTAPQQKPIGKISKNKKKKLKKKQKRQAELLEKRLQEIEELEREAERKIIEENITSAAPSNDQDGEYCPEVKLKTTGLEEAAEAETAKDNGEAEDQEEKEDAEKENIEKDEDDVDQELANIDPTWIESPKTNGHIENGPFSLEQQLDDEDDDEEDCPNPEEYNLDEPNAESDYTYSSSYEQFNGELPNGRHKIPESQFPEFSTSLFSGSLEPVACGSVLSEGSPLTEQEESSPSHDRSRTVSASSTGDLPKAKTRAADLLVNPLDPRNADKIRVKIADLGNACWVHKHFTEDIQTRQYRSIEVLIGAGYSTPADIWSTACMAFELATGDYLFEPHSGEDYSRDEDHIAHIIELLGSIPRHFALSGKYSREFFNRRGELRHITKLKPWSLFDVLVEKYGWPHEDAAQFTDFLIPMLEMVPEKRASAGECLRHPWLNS
Chain of SRSF protein kinase 1 (Q96SB4 whole entry): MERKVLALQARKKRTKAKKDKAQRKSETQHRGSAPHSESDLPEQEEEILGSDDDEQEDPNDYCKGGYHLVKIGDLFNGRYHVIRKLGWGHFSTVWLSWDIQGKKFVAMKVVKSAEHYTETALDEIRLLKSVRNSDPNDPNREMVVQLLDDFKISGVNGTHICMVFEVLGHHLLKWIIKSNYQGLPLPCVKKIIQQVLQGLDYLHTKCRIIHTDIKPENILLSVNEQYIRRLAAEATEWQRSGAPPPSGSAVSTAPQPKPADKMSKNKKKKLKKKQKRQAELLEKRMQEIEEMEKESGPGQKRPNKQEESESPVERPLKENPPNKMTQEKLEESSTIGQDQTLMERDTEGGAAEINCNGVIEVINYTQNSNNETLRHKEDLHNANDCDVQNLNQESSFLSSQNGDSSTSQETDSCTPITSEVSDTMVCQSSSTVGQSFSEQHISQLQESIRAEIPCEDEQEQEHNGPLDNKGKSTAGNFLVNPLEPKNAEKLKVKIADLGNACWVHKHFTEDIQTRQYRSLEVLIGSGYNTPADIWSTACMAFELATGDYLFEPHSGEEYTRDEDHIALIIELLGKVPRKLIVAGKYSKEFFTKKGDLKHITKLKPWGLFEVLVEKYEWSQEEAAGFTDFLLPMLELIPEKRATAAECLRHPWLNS
Chain of Chromatin remodeling regulator CECR2 (Q9BXF3 whole entry): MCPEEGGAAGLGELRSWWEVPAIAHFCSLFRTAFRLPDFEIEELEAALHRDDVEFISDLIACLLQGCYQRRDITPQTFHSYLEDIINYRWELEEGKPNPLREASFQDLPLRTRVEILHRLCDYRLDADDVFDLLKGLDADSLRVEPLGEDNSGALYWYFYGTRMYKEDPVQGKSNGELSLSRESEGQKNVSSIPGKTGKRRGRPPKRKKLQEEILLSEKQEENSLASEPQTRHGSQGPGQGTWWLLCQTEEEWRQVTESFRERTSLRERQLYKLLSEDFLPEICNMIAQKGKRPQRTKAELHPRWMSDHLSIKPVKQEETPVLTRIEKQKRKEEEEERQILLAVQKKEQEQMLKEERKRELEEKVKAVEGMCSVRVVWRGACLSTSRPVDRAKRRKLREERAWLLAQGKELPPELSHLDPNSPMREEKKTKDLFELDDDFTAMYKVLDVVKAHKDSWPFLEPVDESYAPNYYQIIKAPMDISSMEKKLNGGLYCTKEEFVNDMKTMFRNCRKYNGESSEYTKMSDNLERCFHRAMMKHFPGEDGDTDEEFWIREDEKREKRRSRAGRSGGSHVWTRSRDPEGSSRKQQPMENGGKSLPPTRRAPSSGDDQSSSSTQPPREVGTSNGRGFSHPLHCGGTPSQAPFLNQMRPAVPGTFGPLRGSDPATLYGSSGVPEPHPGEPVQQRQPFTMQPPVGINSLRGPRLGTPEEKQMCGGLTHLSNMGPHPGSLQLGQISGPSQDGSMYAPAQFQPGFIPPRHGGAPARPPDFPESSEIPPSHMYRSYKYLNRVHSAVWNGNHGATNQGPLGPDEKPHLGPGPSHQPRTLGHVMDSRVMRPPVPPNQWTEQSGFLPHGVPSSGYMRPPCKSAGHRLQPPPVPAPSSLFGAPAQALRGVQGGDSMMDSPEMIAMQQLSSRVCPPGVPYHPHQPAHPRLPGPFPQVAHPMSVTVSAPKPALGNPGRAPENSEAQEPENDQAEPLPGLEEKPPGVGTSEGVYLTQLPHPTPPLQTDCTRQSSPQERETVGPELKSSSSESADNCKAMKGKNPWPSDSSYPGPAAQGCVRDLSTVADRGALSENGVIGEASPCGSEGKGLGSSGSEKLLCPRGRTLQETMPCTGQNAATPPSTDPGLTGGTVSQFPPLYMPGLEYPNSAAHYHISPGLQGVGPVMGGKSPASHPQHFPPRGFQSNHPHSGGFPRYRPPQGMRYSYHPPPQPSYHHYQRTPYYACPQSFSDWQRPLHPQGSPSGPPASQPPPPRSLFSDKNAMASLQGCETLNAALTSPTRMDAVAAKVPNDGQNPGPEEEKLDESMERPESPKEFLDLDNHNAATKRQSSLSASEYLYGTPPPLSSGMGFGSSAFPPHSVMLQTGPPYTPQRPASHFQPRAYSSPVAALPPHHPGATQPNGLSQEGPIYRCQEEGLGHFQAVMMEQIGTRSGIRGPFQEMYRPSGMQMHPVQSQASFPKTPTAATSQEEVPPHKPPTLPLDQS
Chain of Dual specificity protein kinase CLK1 (P49759 whole entry): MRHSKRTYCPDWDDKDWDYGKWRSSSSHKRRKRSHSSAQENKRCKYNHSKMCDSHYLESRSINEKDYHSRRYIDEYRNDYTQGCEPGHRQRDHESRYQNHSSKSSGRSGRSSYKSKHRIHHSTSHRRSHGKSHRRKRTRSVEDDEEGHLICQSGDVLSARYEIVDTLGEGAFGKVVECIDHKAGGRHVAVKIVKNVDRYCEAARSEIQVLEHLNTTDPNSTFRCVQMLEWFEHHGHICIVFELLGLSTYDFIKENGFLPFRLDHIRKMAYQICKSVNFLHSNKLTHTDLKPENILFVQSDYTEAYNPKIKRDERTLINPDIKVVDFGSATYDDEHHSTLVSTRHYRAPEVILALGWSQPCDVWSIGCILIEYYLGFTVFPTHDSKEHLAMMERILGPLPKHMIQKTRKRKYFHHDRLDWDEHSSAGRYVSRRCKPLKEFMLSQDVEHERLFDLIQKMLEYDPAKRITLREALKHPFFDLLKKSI
Chain of Protein-arginine deiminase type-4 (Q9UM07 whole entry): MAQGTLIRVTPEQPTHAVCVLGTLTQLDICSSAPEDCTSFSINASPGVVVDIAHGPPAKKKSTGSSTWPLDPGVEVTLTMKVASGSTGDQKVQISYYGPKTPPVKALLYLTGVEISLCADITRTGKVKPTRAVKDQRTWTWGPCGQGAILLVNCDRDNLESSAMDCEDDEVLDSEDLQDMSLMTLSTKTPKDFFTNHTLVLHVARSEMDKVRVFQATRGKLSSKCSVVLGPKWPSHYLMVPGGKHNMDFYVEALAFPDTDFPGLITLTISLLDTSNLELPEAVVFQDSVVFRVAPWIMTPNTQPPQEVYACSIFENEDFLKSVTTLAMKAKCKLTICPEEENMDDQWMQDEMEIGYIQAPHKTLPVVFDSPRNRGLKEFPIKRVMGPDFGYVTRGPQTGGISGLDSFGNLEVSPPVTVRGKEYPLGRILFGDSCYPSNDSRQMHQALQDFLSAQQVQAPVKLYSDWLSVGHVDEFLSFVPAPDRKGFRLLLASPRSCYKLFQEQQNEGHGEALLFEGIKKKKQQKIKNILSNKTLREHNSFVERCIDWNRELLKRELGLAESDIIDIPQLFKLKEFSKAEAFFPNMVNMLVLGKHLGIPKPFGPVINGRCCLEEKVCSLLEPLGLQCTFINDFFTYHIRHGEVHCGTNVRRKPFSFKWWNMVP
Chain of Dual specificity protein kinase CLK2 (P49760 whole entry): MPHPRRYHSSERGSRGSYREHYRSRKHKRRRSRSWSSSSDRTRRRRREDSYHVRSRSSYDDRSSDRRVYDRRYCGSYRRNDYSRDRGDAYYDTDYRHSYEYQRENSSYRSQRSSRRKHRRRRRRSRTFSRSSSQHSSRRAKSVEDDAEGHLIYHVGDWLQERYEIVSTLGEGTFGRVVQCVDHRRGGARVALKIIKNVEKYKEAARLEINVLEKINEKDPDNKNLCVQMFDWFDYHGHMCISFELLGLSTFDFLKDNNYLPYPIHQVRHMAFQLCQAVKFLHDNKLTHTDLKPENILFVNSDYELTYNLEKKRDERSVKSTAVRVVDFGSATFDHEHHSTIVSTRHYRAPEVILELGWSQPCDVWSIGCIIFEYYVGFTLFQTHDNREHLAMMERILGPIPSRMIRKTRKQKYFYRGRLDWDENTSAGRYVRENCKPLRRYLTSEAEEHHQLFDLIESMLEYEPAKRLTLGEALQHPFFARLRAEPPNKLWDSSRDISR
Chain of Dual specificity protein kinase CLK4 (Q9HAZ1 whole entry): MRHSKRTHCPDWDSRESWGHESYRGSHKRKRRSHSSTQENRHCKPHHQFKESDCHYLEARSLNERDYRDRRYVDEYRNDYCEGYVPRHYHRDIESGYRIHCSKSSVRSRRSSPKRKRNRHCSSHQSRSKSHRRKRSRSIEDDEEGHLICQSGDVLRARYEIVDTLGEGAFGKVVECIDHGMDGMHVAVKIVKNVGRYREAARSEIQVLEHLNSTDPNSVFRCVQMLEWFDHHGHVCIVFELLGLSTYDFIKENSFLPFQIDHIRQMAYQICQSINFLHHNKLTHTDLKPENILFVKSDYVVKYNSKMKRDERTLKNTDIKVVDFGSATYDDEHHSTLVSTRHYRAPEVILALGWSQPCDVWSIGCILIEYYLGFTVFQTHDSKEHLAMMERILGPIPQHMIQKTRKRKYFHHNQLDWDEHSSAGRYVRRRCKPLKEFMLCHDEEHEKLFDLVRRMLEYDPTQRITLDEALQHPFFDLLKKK

SMILES: COc1cc(Nc2nc(C)cc(-c3cnn4nc(OC)ccc34)n2)cc(C(F)(F)F)c1
- IC50 [1]: > 10 µM
- IC50 [2]: > 10 µM
- IC50 [3]: > 10 µM

SMILES: Cc1cc(CN)cc(C)c1-c1ncn(C)c1-c1cncn1C
- IC50 [7]: 120 µM

SMILES: CN(C)CCCOc1ccc(-c2cc(NCCCn3cccn3)nc(S(C)(=O)=O)n2)cc1
- IC50 [8]: 30.3 µM
- IC50 [9]: 30.3 µM

Other lines, results leading:

- IC50 [4]: > 100 µM
- IC50 [5]: > 100 µM
- IC50 (Peregrin): > 100 µM
SMILES: CCc1cc2cc(NS(=O)(=O)c3ccc(C#N)cc3)ccc2n(CC)c1=O

- IC50 (SRSF protein kinase 2): > 10 µM
- IC50 (SRSF protein kinase 1): > 10 µM
SMILES: CN(c1ncccc1CNc1ccnc(-c2cc3cc(Cl)ccc3[nH]2)n1)S(C)(=O)=O

- IC50 [6]: > 100 µM
SMILES: CCn1c(-c2nc3cc(C(=O)N4CCCC(N)C4)ccc3n2C)cc2ccccc21 (centres undefined)

- Kd [10]: > 20 µM
SMILES: CC(=O)c1cc(-c2ccccc2OCC2CC2)c2ncccn12

- IC50 (CDK8/Cyclin C): 0.671 µM
SMILES: CN(C)C(=O)Cn1cc(-c2ccc(-c3nnc4ccccn34)cc2)cn1

Source: ChEMBL document CHEMBL5446079, “Affinity Biochemical Literature for EUbOPEN Chemogenomic Library” (2024)
